Measured values reported in ChEMBL document CHEMBL5365531, “Structure-Activity Relationship Studies of SARS-CoV-2 Main Protease Inhibitors Containing 4-Fluorobenzothiazole-2-carbonyl Moieties” (J Med Chem, 2023).

Columns and labels:
[1] = Mutagenicity in Salmonella typhimurium TA100 assessed as inhibition of bacterial growth at 0.152 to 333 ug incubated in absence of S9 fraction by micro-Ames test; assay type: toxicity, Salmonella enterica subsp. enterica serovar Typhimurium; conditions: in vivo; dose 0.152-333 µg
[2] = Cytotoxicity against African green monkey Vero E6 cells in presence of P-glycoprotein inhibitor, CP100356; assay type: toxicity, cell-based, Vero C1008; conditions: chlorocebus sabaeus, with CP100356 (P-glycoprotein inhibitor)
[3] = Mutagenicity in Escherichia coli WP2uvrA assessed as fold increase in number of revertants at 0.152 to 333 ug incubated in presence of S9 fraction by micro-Ames test relative to control; assay type: toxicity, subcellular; conditions: dose 0.152-333 µg
[4] = Mutagenicity in Escherichia coli WP2uvrA assessed as inhibition of bacterial growth at 0.152 to 333 ug incubated in presence of S9 fraction by micro-Ames test; assay type: toxicity, subcellular; conditions: dose 0.152-333 µg
Vero C1008 = assay: Cytotoxicity against African green monkey Vero E6 cells infected with SARS-CoV-2 WK-521 upto 100 uM incubated for 3 days by immunostaining analysis; assay type: toxicity, cell-based; conditions: chlorocebus sabaeus, vero c1008, 72 h, time 3 day
[5] = Mutagenicity in Salmonella typhimurium TA98 assessed as fold increase in number of revertants at 0.152 to 333 ug incubated in absence of S9 fraction by micro-Ames test relative to control; assay type: toxicity, Salmonella enterica subsp. enterica serovar Typhimurium; conditions: in vivo; dose 0.152-333 µg
[6] = Mutagenicity in Salmonella typhimurium TA98 assessed as inhibition of bacterial growth at 0.152 to 333 ug incubated in presence of S9 fraction by micro-Ames test; assay type: toxicity, subcellular, Salmonella enterica subsp. enterica serovar Typhimurium; conditions: dose 0.152-333 µg
SARS-CoV-2 [7] = assay: Antiviral activity against SARS-CoV-2 hCoV-19/Japan/TKYS02037/2022 (omicron BA.2) infected in Vero E6 cells preincubated with cells for 1 day followed by viral infection and measured after 3 days by qRT-PCR analysis; assay type: functional, organism-based; conditions: Severe acute respiratory syndrome coronavirus 2, hCoV-19/Japan/TKYS02037/2022 (omicron BA.2), Vero C1008
[8] = Mutagenicity in Salmonella typhimurium TA98 assessed as fold increase in number of revertants at 0.152 to 333 ug incubated in presence of S9 fraction by micro-Ames test relative to control; assay type: toxicity, subcellular, Salmonella enterica subsp. enterica serovar Typhimurium; conditions: dose 0.152-333 µg
[9] = Mutagenicity in Salmonella typhimurium TA1535 assessed as inhibition of bacterial growth at 0.152 to 333 ug incubated in presence of S9 fraction by micro-Ames test; assay type: toxicity, subcellular, Salmonella enterica subsp. enterica serovar Typhimurium; conditions: dose 0.152-333 µg
PBMC = assay: Cytotoxicity against human PBMC cells assessed as reduction in cell viability at 0.4 uM incubated for 12 days by CCK-8 assay; assay type: toxicity, cell-based; conditions: 288 h, time 12 day
[10] = Mutagenicity in Escherichia coli WP2uvrA assessed as fold increase in number of revertants at 0.152 to 333 ug incubated in absence of S9 fraction by micro-Ames test relative to control; assay type: toxicity; conditions: in vivo; dose 0.152-333 µg
SARS-CoV-2 [11] = assay: Antiviral activity against SARS-CoV-2 JPN/TY/WK-521 infected in Vero E6 cells preincubated with cells for 1 day followed by viral infection and measured after 3 days by qRT-PCR analysis; assay type: functional, organism-based; conditions: Severe acute respiratory syndrome coronavirus 2, JPN/TY/WK-521, Vero C1008
[12] = Half life in PXB mouse at 10 mg/kg, po measured for 24 hrs; assay type: ADME, organism-based; conditions: in vivo
[13] = Mutagenicity in Salmonella typhimurium TA100 assessed as fold increase in number of revertants at 0.152 to 333 ug incubated in absence of S9 fraction by micro-Ames test relative to control; assay type: toxicity, Salmonella enterica subsp. enterica serovar Typhimurium; conditions: in vivo; dose 0.152-333 µg
MOLT-4 = assay: Cytotoxicity against human MOLT-4 cells assessed as reduction in cell viability at 0.4 uM incubated for 12 days by CCK-8 assay; assay type: toxicity, cell-based; conditions: molt-4, 288 h, time 12 day
[14] = Mutagenicity in Salmonella typhimurium TA1535 assessed as fold increase in number of revertants at 0.152 to 333 ug incubated in absence of S9 fraction by micro-Ames test relative to control; assay type: toxicity, Salmonella enterica subsp. enterica serovar Typhimurium; conditions: in vivo; dose 0.152-333 µg
[15] = Mutagenicity in Salmonella typhimurium TA100 assessed as inhibition of bacterial growth at 0.152 to 333 ug incubated in presence of S9 fraction by micro-Ames test; assay type: toxicity, subcellular, Salmonella enterica subsp. enterica serovar Typhimurium; conditions: dose 0.152-333 µg
[16] = Mutagenicity in Salmonella typhimurium TA1537 assessed as inhibition of bacterial growth at 0.152 to 333 ug incubated in absence of S9 fraction by micro-Ames test; assay type: toxicity, Salmonella enterica subsp. enterica serovar Typhimurium; conditions: in vivo; dose 0.152-333 µg
SARS-CoV-2 [17] = assay: Antiviral activity against SARS-CoV-2 infected in Vero E6 cells preincubated with cells for 1 day in presence of HCl treated compound followed by viral infection and measured after 3 days by qRT-PCR analysis; assay type: functional, organism-based; conditions: Severe acute respiratory syndrome coronavirus 2, Vero C1008
[18] = Mutagenicity in Salmonella typhimurium TA1535 assessed as inhibition of bacterial growth at 0.152 to 333 ug incubated in absence of S9 fraction by micro-Ames test; assay type: toxicity, Salmonella enterica subsp. enterica serovar Typhimurium; conditions: in vivo; dose 0.152-333 µg
[19] = Mutagenicity in Salmonella typhimurium TA1537 assessed as fold increase in number of revertants at 0.152 to 333 ug incubated in presence of S9 fraction by micro-Ames test relative to control; assay type: toxicity, subcellular, Salmonella enterica subsp. enterica serovar Typhimurium; conditions: dose 0.152-333 µg
[20] = Mutagenicity in Salmonella typhimurium TA1537 assessed as inhibition of bacterial growth at 0.152 to 333 ug incubated in presence of S9 fraction by micro-Ames test; assay type: toxicity, subcellular, Salmonella enterica subsp. enterica serovar Typhimurium; conditions: dose 0.152-333 µg
MT2 = assay: Cytotoxicity against human MT2 cells assessed as reduction in cell viability at 0.4 uM incubated for 12 days by CCK-8 assay; assay type: toxicity, cell-based; conditions: mt2, 288 h, time 12 day
[21] = Cytotoxicity against human A549-hACE2-TMPRSS2 cells; assay type: toxicity, cell-based
[22] = Mutagenicity in Salmonella typhimurium TA100 assessed as fold increase in number of revertants at 0.152 to 333 ug incubated in presence of S9 fraction by micro-Ames test relative to control; assay type: toxicity, subcellular, Salmonella enterica subsp. enterica serovar Typhimurium; conditions: dose 0.152-333 µg
[23] = Cytotoxicity against African green monkey Vero E6 cells incubated for 3 days by WST-8 assay; assay type: toxicity, cell-based, Vero C1008; conditions: chlorocebus sabaeus, time 3 day
SARS-CoV-2 [24] = assay: Antiviral activity against SARS-CoV-2 JPN/TY/WK-521 infected in Vero E6 cells assessed as fold change preincubated with cells for 1 day followed by viral infection and measured after 3 days by qRT-PCR analysis relative to 7-fluoro-N-((S)-1-(((S)-1-(4-fluorobenzo[d]thiazol-2-yl)-1-oxo-3-((S)-2-oxopyrrolidin-3-yl)propan-2-yl)amino)-3,3-dimethyl-1-oxobutan-2-yl)-4-methoxy-1H-indole-2-carboxamide; assay type: functional, Severe acute respiratory syndrome coronavirus 2; conditions: time 4 day
[25] = Mutagenicity in Salmonella typhimurium TA98 assessed as inhibition of bacterial growth at 0.152 to 333 ug incubated in absence of S9 fraction by micro-Ames test; assay type: toxicity, Salmonella enterica subsp. enterica serovar Typhimurium; conditions: in vivo; dose 0.152-333 µg
[26] = Half life in PXB mouse at 10 mg/kg, iv measured for 24 hrs; assay type: ADME, organism-based; conditions: in vivo
[27] = Oral bioavailability in PXB mouse at 10 mg/kg measured for 24 hrs; assay type: ADME, organism-based; conditions: in vivo
SARS-CoV-2 [28] = assay: Antiviral activity against SARS-CoV-2 assessed as fold change relative to YH-53; assay type: functional, Severe acute respiratory syndrome coronavirus 2
SARS-CoV-2 [29] = assay: Antiviral activity against SARS-CoV-2 infected in Vero E6 cells preincubated with cells for 1 day in absence of HCl followed by viral infection and measured after 3 days by qRT-PCR analysis; assay type: functional, organism-based; conditions: Severe acute respiratory syndrome coronavirus 2, Vero C1008
SARS-CoV-2 [30] = assay: Antiviral activity against SARS-CoV-2 JPN/TY/WK-521 infected in Vero E6 cells assessed as inhibition of viral replication preincubated with cells for 1 day followed by viral infection and measured after 3 to 4 days by qRT-PCR analysis; assay type: functional, organism-based; conditions: Severe acute respiratory syndrome coronavirus 2, JPN/TY/WK-521, Vero C1008
[31] = Mutagenicity in Salmonella typhimurium TA1535 assessed as fold increase in number of revertants at 0.152 to 333 ug incubated in presence of S9 fraction by micro-Ames test relative to control; assay type: toxicity, subcellular, Salmonella enterica subsp. enterica serovar Typhimurium; conditions: dose 0.152-333 µg
[32] = Mutagenicity in Salmonella typhimurium TA1537 assessed as fold increase in number of revertants at 0.152 to 333 ug incubated in absence of S9 fraction by micro-Ames test relative to control; assay type: toxicity, Salmonella enterica subsp. enterica serovar Typhimurium; conditions: in vivo; dose 0.152-333 µg
[33] = Cytotoxicity against human HepG2 cells; assay type: toxicity, cell-based
[34] = Cytotoxicity against human HeLa cells expressing ACE2 and TMPRSS2; assay type: toxicity, cell-based
[35] = Mutagenicity in Escherichia coli WP2uvrA assessed as inhibition of bacterial growth at 0.152 to 333 ug incubated in absence of S9 fraction by micro-Ames test; assay type: toxicity; conditions: in vivo; dose 0.152-333 µg

## CC(C)(C)[C@H](NC(=O)C(F)(F)F)C(=O)N1C[C@H]2[C@@H]([C@H]1C(=O)N[C@@H](C[C@@H]1CCNC1=O)C(=O)c1nc3c(F)cccc3s1)C2(C)C
[1]
  Activity: Non-Toxic
[2]
  CC50: > 100 µM
[3]
  fold change (FC): > 2
[4]
  Activity: Non-Toxic
Vero C1008
  Activity: Non-Toxic
[5]
  fold change (FC): > 2
[6]
  Activity: Non-Toxic
SARS-CoV-2 [7]
  EC50: 0.048 µM
[8]
  fold change (FC): > 2
[9]
  Activity: Non-Toxic
PBMC
  Activity: Non-Toxic
[10]
  fold change (FC): > 2
SARS-CoV-2 [11]
  EC50: 0.012 µM
[12]
  half-life: 3.82 h
[13]
  fold change (FC): > 2
MOLT-4
  Activity: Non-Toxic
[14]
  fold change (FC): > 2
[15]
  Activity: Non-Toxic
[16]
  Activity: Non-Toxic
SARS-CoV-2 [17]
  EC50: 0.087 µM
[18]
  Activity: Non-Toxic
[19]
  fold change (FC): > 2
[20]
  Activity: Non-Toxic
MT2
  Activity: Non-Toxic
[21]
  CC50: > 100 µM
[22]
  fold change (FC): > 2
[23]
  CC50 at 72 h: > 100 µM
SARS-CoV-2 [24]
  fold change (FC): 0.057
[25]
  Activity: Non-Toxic
[26]
  half-life: 1.25 h
[27]
  bioavailability: 48%
SARS-CoV-2 [28]
  fold change (FC): 0.012
SARS-CoV-2 [29]
  EC50: 0.074 µM
SARS-CoV-2 [30]
  EC50: 0.03 µM
[31]
  fold change (FC): > 2
[32]
  fold change (FC): > 2
[33]
  CC50: > 200 µM
[34]
  CC50: > 100 µM
[35]
  Activity: Non-Toxic
